Molecular target: T1, human RNR (histidine tagged human M1 and human M2 proteins) (Homo sapiens, UniProt P23921)
T1 construct: made in house; host or cells: Escherichia coli
T1 sequence (P23921 1-792): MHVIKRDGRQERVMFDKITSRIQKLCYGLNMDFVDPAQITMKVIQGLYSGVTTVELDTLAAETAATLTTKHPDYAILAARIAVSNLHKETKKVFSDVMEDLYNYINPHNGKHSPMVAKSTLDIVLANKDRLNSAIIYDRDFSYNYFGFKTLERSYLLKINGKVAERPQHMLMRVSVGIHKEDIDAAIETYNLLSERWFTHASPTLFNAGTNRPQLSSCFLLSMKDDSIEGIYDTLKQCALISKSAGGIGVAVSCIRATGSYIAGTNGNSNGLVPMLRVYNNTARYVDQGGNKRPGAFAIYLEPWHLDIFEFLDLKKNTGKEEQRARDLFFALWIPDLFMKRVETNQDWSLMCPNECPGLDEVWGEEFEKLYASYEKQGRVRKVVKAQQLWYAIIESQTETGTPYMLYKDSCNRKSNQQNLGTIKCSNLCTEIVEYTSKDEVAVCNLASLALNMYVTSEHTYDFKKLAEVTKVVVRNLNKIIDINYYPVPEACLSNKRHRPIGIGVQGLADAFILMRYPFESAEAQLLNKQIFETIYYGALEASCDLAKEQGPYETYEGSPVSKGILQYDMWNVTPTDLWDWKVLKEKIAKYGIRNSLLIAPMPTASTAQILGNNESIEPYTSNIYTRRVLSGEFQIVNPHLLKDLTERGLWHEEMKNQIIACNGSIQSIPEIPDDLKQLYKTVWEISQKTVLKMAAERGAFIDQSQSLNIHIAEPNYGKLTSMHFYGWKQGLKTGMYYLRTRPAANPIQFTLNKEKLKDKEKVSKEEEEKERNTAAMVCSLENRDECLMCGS
Assay: Human RNR inhibition effect (dCDP formation from CDP)
Format: biochemical
Settings: 10 μM CDP, 37° C. for 30 minutes, read-out: RNR inhibitory activity IC50
Procedure, shortened: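 His-tagged human M1 (isoform 1) and N-terminal 59-aa-truncated M2 (isoform 2), E. coli-expressed, Ni-purified, preincubated 20 min with compound (1% DMSO). Reaction with 10 μM CDP, 2 mM ATP, 0.24 mM NADPH, 6 mM DTT, 4 mM Mg acetate, 100 mM KCl, 50 mM HEPES pH 7.2, 30 min at 37° C. dCDP formed quantified by reverse-phase HPLC after heat stop.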

Row | Structure (SMILES) | IC50 [nM]
1 | COc1cc(Cl)ccc1S(=O)(=O)N[C@H](c1n[nH]c(=O)o1)[C@H](C)c1cccc(C)c1C(C)C [Example 85, 4-chloro-N-((1S,2R)-2-(2-isopropyl-3-methylphenyl)-1-(5-oxo-4,5-dihydro-1,3,4-oxadiazol-2-yl)propyl)-2-methoxybenzenesulfonamide] | 840
2 | CCc1cccc([C@@H](C)[C@H](NS(=O)(=O)c2ccc(Cl)cc2OC)c2n[nH]c(=O)o2)c1C [Example 86, 4-chloro-N-((1S,2R)-2-(3-ethyl-2-methylphenyl)-1-(5-oxo-4,5-dihydro-1,3,4-oxadiazol-2-yl)propyl)-2-methoxybenzenesulfonamide] | 400
3 | CCc1c(C)cccc1[C@@H](C)[C@H](NS(=O)(=O)c1ccc(Cl)cc1OC)c1n[nH]c(=O)o1 [Example 87, 4-chloro-N-((1S,2R)-2-(2-ethyl-3-methylphenyl)-1-(5-oxo-4,5-dihydro-1,3,4-oxadiazol-2-yl)propyl)-2-methoxybenzenesulfonamide] | 840
4 | COc1cc(Cl)ccc1S(=O)(=O)N[C@H](c1n[nH]c(=O)o1)C(C)c1c(F)c(F)cc(C)c1Br (stereo partly drawn) [Example 89, N-((1S)-2-(2-bromo-5,6-difluoro-3-methylphenyl)-1-(5-oxo-4,5-dihydro-1,3,4-oxadiazol-2-yl)propyl)-4-chloro-2-methoxybenzenesulfonamide] | 420
5 | Cc1ccc(F)c([C@@H](C)[C@H](NS(=O)(=O)c2ccccc2C#N)c2n[nH]c(=O)o2)c1C [Example 98, 2-cyano-N-((1S,2R)-2-(6-fluoro-2,3-dimethylphenyl)-1-(5-oxo-4,5-dihydro-1,3,4-oxadiazol-2-yl)propyl)benzenesulfonamide] | 640
6 | Cc1ccc(F)c([C@@H](C)[C@H](NS(=O)(=O)c2cccc3c2OCCN3C(=O)C2CC2)c2n[nH]c(=O)o2)c1C [Example 99, 4-(cyclopropanecarbonyl)-N-((1S,2R)-2-(6-fluoro-2,3-dimethylphenyl)-1-(5-oxo-4,5-dihydro-1,3,4-oxadiazol-2-yl)propyl)-3,4-dihydro-2H-benzo[b][1,4]oxazine-8-sulfonamide] | 290
7 | CC(=O)OC1(C)CCOc2c(S(=O)(=O)N[C@H](c3n[nH]c(=O)o3)[C@H](C)c3c(F)ccc(Cl)c3C)ccc(Cl)c21 (stereo partly drawn) [Example 100, 5-chloro-8-(N-((1S,2R)-2-(3-chloro-6-fluoro-2-methylphenyl)-1-(5-oxo-4,5-dihydro-1,3,4-oxadiazol-2-yl)propyl)sulfamoyl)-4-methylchroman-4-yl acetate] | 300
8 | COC(=O)c1cc(Cl)ccc1S(=O)(=O)N[C@H](c1n[nH]c(=O)o1)[C@H](C)c1c(F)ccc(C)c1C [Example 103, methyl 5-chloro-2-(N-((1S,2R)-2-(6-fluoro-2,3-dimethylphenyl)-1-(5-oxo-4,5-dihydro-1,3,4-oxadiazol-2-yl)propyl)sulfamoyl)benzoate] | 410
9 | COc1cc(Cl)ccc1S(=O)(=O)N[C@H](c1n[nH]c(=O)o1)[C@H](C)c1c(F)ccc(C#N)c1C [Example 104, 4-chloro-N-((1S,2R)-2-(3-cyano-6-fluoro-2-methylphenyl)-1-(5-oxo-4,5-dihydro-1,3,4-oxadiazol-2-yl)propyl)-2-methoxybenzenesulfonamide] | 840
10 | CC(=O)OC1(C(F)(F)F)CCOc2c1cccc2S(=O)(=O)N[C@H](c1n[nH]c(=O)o1)[C@H](C)c1c(F)ccc(C)c1C (stereo partly drawn) [Example 106, 8-(N-((1S,2R)-2-(6-fluoro-2,3-dimethylphenyl)-1-(5-oxo-4,5-dihydro-1,3,4-oxadiazol-2-yl)propyl)sulfamoyl)-4-(tifluoromethyl)chroman-4-ylacetate] | 270
11 | Cc1ccc(F)c([C@@H](C)[C@H](NS(=O)(=O)c2ccc(Cl)c3c2C(=O)CCC3)c2n[nH]c(=O)o2)c1C [Example 107, 4-chloro-N-((1S,2R)-2-(6-fluoro-2,3-diinethylphenyl)-1-(5-oxo-4,5-dihydro-1,3,4-oxadiazol-2-yl)propyl)-8-oxo-5,6,7,8-tetrahydronaphthalene-1-sulfonamide] | 240
12 | COc1c(S(=O)(=O)N[C@H](c2n[nH]c(=O)o2)[C@H](C)c2c(F)ccc(C)c2C)ccc(Cl)c1C(C)(C)OC(C)=O [Example 108, 2-(6-chloro-3-(N-((1S,2R)-2-(6-fluoro-2,3-dimethylphenyl)-1-(5-oxo-4,5-dihydro-1,3,4-oxadiazol-2-yl)propyl)sulfamoyl)-2-methoxyphenyl)propan-2-ylacetate] | 430

Results, then the compound that gave them:

Row | IC50 [nM] | Structure (SMILES)
13 | 150 | Cc1ccc(F)c([C@@H](C)[C@H](NS(=O)(=O)c2ccc(Cl)c3c2OCCC3=O)c2n[nH]c(=O)o2)c1C [Example 88, 5-chloro-N-((1S,2R)-2-(6-fluoro-2,3-dimethylphenyl)-1-(5-oxo-4,5-dihydro-1,3,4-oxadiazol-2-yl)propyl)-4-oxochroman-8-sulfonamide]
14 | 160 | COc1cc(Cl)ccc1S(=O)(=O)N[C@H](c1n[nH]c(=O)o1)[C@H](C)c1c(C)c(C)cc(F)c1F [Example 90, 4-chloro-N-((1S,2R)-2-(2,3-difluoro-5,6-dimethylphenyl)-1-(5-oxo-4,5-dihydro-1,3,4-oxadiazol-2-yl)propyl)-2-methoxybenzenesulfonamide]
15 | 230 | Cc1ccc(F)c([C@@H](C)[C@H](NS(=O)(=O)c2ccc(Cl)cc2-c2ccno2)c2n[nH]c(=O)o2)c1C [Example 91, 4-chloro-N-((1S,2R)-2-(6-fluoro-2,3-dimethylphenyl)-1-(5-oxo-4,5-dihydro-1,3,4-oxadiazol-2-yl)propyl)-2-(isoxazol-5-yl)benzenesulfonamide]
16 | 200 | Cc1ccc(F)c([C@@H](C)[C@H](NS(=O)(=O)c2ccc(Br)cc2C#N)c2n[nH]c(=O)o2)c1C [Example 92, 4-bromo-2-cyano-N-((1S,2R)-2-(6-fluoro-2,3-dimethylphenyl)-1-(5-oxo-4,5-dihydro-1,3,4-oxadiazol-2-yl)propyl)benzenesulfonamide]
17 | 100 | Cc1ccc(F)c([C@@H](C)[C@H](NS(=O)(=O)c2ccc(Cl)c3c2OCC(=O)N3C)c2n[nH]c(=O)o2)c1C [Example 93, 5-chloro-N-((1S,2R)-2-(6-fluoro-2,3-dimethylphenyl)-1-(5-oxo-4,5-dihydro-1,3,4-oxadiazol-2-yl)propyl)-4-methyl-3-oxo-3,4-dihydro-2H-benzo[b][1,4]oxazine-8-sulfonamide]
18 | 110 | CCN1CCOc2c(S(=O)(=O)N[C@H](c3n[nH]c(=O)o3)[C@H](C)c3c(F)ccc(C)c3C)ccc(Cl)c21 [Example 94, 5-chloro-4-ethyl-N-((1S,2R)-2-(6-fluoro-2,3-dimethylphenyl)-1-(5-oxo4,5-dihydro-1,3,4-oxadiazol-2-yl)propyl)-3,4-dihydro-2H-benzo[b][1,4]oxazine-8-sulfonamide]
19 | 100 | CCc1ccc(F)c([C@@H](C)[C@H](NS(=O)(=O)c2ccc(Br)cc2C(N)=O)c2n[nH]c(=O)o2)c1C [Example 96, 5-bromo-2-(N-((1S,2R)-2-(3-ethyl-6-fluoro-2-methylphenyl)-1-(5-oxo-4,5-dihydro-1,3,4-oxadiazol-2-yl)propyl)sulfamoyl)benzamide]
20 | 240 | Cc1ccc(F)c([C@@H](C)[C@H](NS(=O)(=O)c2cccc3c2OC(C)(C)CC3=O)c2n[nH]c(=O)o2)c1C [Example 97, N-((1S,2R)-2-(6-fluoro-2,3-dimethylphenyl)-1-(5-oxo-4,5-dihydro-1,3,4-oxadiazol-2-yl)propyl)-2,2-dimethyl-4-oxochroman-8-sulfonamide]
21 | 130 | Cc1ccc(F)c([C@@H](C)[C@H](NS(=O)(=O)c2ccc(Cl)c3c2OCC(=O)N3CC(F)F)c2n[nH]c(=O)o2)c1C [Example 101, 5-chloro-4-(2,2-difluoroethyl)-N-((1S,2R)-2-(6-fluoro-2,3-dimethylphenyl)-1-(5-oxo-4,5-dihydro-1,3,4-oxadiazol-2-yl)propyl)-3-oxo-3,4-dihydro-2H-benzo[b][1,4]oxazine-8-sulfonamide]
22 | 140 | Cc1ccc(F)c([C@@H](C)[C@H](NS(=O)(=O)c2ccc(Cl)c3c2OCCN3CC(F)F)c2n[nH]c(=O)o2)c1C [Example 102, 5-chloro-4-(2,2-difluoroethyl)-N-((1S,2R)-2-(6-fluoro-2,3-dimethylphenyl)-1-(5-oxo-4,5-dihydro-2,3,4-oxadiazol-2-yl)propyl)-3,4-dihydro-2H-benzo[b][1,4]oxazine-8-sulfonamide]
23 | 160 | Cc1ccc(F)c([C@@H](C)[C@H](NS(=O)(=O)c2ccc(Cl)c(C#N)n2)c2n[nH]c(=O)o2)c1C [Example 105, 5-chloro-6-cyano-N-((1S,2R)-2-(6-fluoro-2,3-dimethylphenyl)-1-(5-oxo-4,5-dihydro-1,3,4-oxadiazol-2-yl)propyl)pyridine-2-sulfonamide]
